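Protocol summary: plate cells (96-well), add compound at 5 concentrations, incubate 48 h, interpolate endpoints linearly. GI50 = concentration required for 50% inhibition of growth. TGI marks complete inhibition of growth.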
Columns and labels:
Test in all cases: growth of human tumour cells (NCI), 48 h
T-47D breast = test system: T-47D breast
UACC-257 melanoma = test system: UACC-257 melanoma
SK-MEL-2 melanoma = test system: SK-MEL-2 melanoma
NCI-H226 lung = test system: NCI-H226 lung
COLO 205 colon = test system: COLO 205 colon
NCI/ADR-RES ovarian = test system: NCI/ADR-RES ovarian
HOP-92 NSCLC = test system: HOP-92 NSCLC
HCT-116 colon = test system: HCT-116 colon
SNB-19 CNS = test system: SNB-19 CNS
RXF 393 renal = test system: RXF 393 renal

SMILES | TGI (T-47D breast) | TGI (UACC-257 melanoma) | TGI (SK-MEL-2 melanoma) | TGI (NCI-H226 lung) | TGI (COLO 205 colon) | TGI (NCI/ADR-RES ovarian) | TGI (HOP-92 NSCLC) | TGI (HCT-116 colon) | TGI (SNB-19 CNS) | TGI (RXF 393 renal) | GI50 (T-47D breast) | GI50 (UACC-257 melanoma) | GI50 (SK-MEL-2 melanoma) | GI50 (NCI-H226 lung) | GI50 (COLO 205 colon) | GI50 (NCI/ADR-RES ovarian) | GI50 (HOP-92 NSCLC) | GI50 (HCT-116 colon) | GI50 (SNB-19 CNS) | GI50 (RXF 393 renal)
O=C1CC(c2[nH]nc3ccccc23)C(=O)N1c1ccccc1 (stereo not given) | > 100 µM | > 100 µM | > 100 µM | > 100 µM | > 100 µM | > 100 µM | > 100 µM | > 100 µM | > 100 µM | > 100 µM |  |  |  |  |  |  |  |  |  | 
Cc1c2cc(Cl)c3ccccc3c2c[n+]2ccccc12 | 2.53 µM | 17.9 µM | 11.5 µM | 14.2 µM | 10.2 µM | > 100 µM | 27.4 µM | 32.9 µM | 2.76 µM | > 65.5 µM | 0.544 µM | 4.27 µM | 3.58 µM | 1.8 µM | 1.83 µM | > 100 µM | 2.04 µM | 7.2 µM | 0.525 µM | 12.3 µM
C#Cc1nc2ccccc2c(=O)[nH]1 | 3.6 µM | 3.15 µM | 6.19 µM | 11.7 µM | 2.42 µM | 8.19 µM | 2.61 µM | 0.716 µM | 18 µM | 0.871 µM | 1.36 µM | 0.505 µM | 2.15 µM | 0.513 µM | 0.818 µM | 0.927 µM | 1.14 µM | 0.247 µM | 4.19 µM | 0.249 µM
CN(C)c1nc2ccccc2c2c1c1c(n2Cc2ccccc2)-c2ccccc2C1=O | > 100 µM | > 100 µM | > 100 µM | > 100 µM | > 100 µM | > 100 µM | > 100 µM | > 100 µM | > 100 µM | > 100 µM | 55.6 µM | > 100 µM | > 100 µM | > 100 µM | > 100 µM | > 100 µM | 13 µM | 8.79 µM | > 100 µM | > 100 µM
COC(=O)C1=C(C(=O)OC)C2(C)C=CC1O2 (stereo not given) | 13 µM | 29.4 µM | 43.8 µM | 39.9 µM | 32.6 µM | 37.6 µM | 24.4 µM | 22.3 µM | > 100 µM | 57.6 µM |  |  |  |  |  |  |  |  |  | 
Cc1c2c(c(C)c3c4c(oc13)CCCC4)C=NCC2 | > 100 µM | 29.5 µM | 31.2 µM | 31.5 µM | 48.5 µM | 31.2 µM | 25.4 µM | 35.9 µM | 53.5 µM | 15.9 µM |  |  |  |  |  |  |  |  |  | 
c1ccc(-c2nc(N3CCOCC3)c3c4c(sc3n2)CCCCCC4)nc1 | 22.7 µM | 23.2 µM | 21.7 µM | 24 µM | 22.3 µM | 18.2 µM | 5.05 µM | 15.3 µM | 21.6 µM | 25.5 µM | 4.46 µM | 10.9 µM | 7.9 µM | 5 µM | 9.4 µM | 0.836 µM | 0.622 µM | 3.69 µM | 8.36 µM | 8.38 µM

Source: PubChem BioAssay (NCI)
